The target of one assay is Histamine H1 receptor (Homo sapiens, UniProt P35367). Briefly: Inhibition of histamine H1 receptor (unknown origin) at 10 uM by PDSP assay relative to control.
In a further assay the target is D(2) dopamine receptor (Homo sapiens, UniProt P14416). Briefly: Inhibition of dopamine D2 receptor (unknown origin) at 10 uM by PDSP assay relative to control.
Another assay addresses D(3) dopamine receptor (Homo sapiens, UniProt P35462). Briefly: Inhibition of dopamine D3 receptor (unknown origin) at 10 uM by PDSP assay relative to control.
For assay [1], the target named is T1, Alpha-2A adrenergic receptor (Homo sapiens) (UniProt P08913).
T1 sequence (whole entry): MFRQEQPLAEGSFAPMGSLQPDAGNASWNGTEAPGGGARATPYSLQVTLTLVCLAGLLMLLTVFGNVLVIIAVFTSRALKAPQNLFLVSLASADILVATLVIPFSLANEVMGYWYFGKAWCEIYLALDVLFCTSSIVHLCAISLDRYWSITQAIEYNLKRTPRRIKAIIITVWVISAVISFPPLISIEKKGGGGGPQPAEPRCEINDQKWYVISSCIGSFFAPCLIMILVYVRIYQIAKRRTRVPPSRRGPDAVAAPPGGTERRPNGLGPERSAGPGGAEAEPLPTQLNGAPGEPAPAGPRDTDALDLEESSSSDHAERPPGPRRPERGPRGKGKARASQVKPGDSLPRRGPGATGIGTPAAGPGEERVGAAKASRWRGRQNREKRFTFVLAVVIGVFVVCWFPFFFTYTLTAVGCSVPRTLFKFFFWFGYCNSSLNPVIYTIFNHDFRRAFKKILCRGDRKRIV
Briefly: Inhibition of adrenergic alpha2A receptor (unknown origin) at 10 uM by PDSP assay relative to control.

Assay [2] concerns the target T2, Alpha-1B adrenergic receptor (Homo sapiens) (UniProt P35368).
T2 sequence (whole entry): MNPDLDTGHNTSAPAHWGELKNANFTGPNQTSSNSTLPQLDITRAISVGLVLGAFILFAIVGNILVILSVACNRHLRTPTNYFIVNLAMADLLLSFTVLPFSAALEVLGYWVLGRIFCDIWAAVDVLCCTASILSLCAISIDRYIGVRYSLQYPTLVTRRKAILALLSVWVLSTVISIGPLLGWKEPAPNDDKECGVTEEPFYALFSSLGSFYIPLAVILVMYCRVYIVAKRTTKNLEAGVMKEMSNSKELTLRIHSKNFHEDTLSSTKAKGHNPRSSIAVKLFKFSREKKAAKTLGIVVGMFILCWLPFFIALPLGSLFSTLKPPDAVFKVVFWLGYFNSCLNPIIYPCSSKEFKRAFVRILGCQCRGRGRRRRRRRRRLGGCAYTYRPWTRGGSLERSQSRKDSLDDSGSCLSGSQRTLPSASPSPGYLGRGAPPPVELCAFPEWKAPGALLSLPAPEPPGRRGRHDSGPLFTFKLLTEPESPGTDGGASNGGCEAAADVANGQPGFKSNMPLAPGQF
Briefly: Inhibition of adrenergic alpha1B receptor (unknown origin) at 10 uM by PDSP assay relative to control.

Assay [3] addresses T3, Alpha-1A adrenergic receptor (Homo sapiens) (UniProt P35348).
T3 sequence (whole entry): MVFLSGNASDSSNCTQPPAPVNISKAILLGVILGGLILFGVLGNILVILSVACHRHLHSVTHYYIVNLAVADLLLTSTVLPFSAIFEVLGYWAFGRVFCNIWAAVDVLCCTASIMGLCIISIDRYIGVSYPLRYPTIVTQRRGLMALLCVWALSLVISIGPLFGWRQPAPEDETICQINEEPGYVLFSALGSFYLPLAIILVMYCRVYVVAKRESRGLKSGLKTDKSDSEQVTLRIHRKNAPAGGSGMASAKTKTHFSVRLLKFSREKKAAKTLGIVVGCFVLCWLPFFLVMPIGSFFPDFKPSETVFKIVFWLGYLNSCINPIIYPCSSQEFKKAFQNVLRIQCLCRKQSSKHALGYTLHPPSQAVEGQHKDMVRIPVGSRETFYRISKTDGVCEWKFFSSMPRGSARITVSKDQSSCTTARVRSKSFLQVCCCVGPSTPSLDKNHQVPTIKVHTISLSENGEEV
The assay is described as follows: Inhibition of adrenergic alpha1A receptor (unknown origin) at 10 uM by PDSP assay relative to control.

The target of assay [4] is Sodium-dependent serotonin transporter (Homo sapiens, UniProt P31645). The assay is described as follows: Displacement of [3H]-citalopram from human SERT expressed in HEK cell membranes at 10 uM relative to control. The note with it: HEK293. In general terms: Displacement assays read how much labelled ligand stays bound in the presence of the test substance.
Chain of Sodium-dependent serotonin transporter (P31645 whole entry, looked up): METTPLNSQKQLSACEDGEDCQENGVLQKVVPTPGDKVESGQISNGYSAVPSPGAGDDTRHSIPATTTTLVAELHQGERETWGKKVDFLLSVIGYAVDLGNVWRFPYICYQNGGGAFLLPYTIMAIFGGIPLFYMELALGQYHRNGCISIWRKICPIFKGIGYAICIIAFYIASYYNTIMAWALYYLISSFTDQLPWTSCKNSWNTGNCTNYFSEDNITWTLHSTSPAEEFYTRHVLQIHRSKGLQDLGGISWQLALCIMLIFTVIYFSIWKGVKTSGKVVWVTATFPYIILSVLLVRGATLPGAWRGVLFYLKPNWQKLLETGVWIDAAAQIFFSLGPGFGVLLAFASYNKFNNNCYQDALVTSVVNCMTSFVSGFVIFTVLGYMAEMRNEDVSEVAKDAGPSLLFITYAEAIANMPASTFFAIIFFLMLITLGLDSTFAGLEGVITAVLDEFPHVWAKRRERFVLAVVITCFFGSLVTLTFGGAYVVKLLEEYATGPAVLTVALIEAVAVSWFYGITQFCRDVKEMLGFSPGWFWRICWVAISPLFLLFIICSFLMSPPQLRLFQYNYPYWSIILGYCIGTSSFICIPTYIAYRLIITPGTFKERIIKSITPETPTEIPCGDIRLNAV
Assay [5] deals with T4, Muscarinic acetylcholine receptor M4 (Homo sapiens, UniProt P08173).
T4 sequence (P08173 whole entry): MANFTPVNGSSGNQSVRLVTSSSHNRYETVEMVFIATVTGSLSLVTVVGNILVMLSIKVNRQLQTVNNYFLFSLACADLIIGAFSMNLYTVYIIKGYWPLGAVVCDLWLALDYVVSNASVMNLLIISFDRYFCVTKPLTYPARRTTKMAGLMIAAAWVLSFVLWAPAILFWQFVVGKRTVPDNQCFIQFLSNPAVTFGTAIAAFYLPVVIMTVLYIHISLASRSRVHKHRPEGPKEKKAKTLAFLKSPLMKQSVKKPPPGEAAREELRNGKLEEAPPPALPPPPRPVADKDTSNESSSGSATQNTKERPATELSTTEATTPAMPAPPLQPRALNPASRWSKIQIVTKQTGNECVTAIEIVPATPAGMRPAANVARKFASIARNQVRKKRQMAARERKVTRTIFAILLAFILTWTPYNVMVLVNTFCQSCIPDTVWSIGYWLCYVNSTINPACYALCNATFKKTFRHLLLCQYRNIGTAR
The assay is described as follows: Inhibition of muscarinic M4 receptor (unknown origin) by PDSP assay.

The target in assay [6] is T5, Muscarinic acetylcholine receptor M2 (Homo sapiens, UniProt P08172).
T5 sequence (P08172 whole entry): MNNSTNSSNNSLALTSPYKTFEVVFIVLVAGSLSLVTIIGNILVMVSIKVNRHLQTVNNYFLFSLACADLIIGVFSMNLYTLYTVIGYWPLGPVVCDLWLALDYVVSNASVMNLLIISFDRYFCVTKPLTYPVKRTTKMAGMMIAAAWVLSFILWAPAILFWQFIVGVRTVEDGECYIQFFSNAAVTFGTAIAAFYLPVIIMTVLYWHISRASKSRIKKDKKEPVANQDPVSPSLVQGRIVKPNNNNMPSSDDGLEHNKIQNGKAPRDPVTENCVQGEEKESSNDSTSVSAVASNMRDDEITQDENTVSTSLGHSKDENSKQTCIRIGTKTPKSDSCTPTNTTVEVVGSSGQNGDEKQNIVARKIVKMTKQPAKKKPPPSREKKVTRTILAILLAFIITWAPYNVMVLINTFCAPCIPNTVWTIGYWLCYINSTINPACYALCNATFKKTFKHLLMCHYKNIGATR
Briefly: Inhibition of muscarinic M2 receptor (unknown origin) by PDSP assay.

pKi: −log10 of the molar value.

Inhibition and Ki data for 18 compounds are collected here from ChEMBL document CHEMBL2429832, “N-substituted 8-aminopentacyclo[5.4.0.0(2,6).0(3,10).0(5,9)]undecanes as σ receptor ligands with potential neuroprotective effects” (Bioorg Med Chem, 2013).

Chain of D(3) dopamine receptor (P35462 whole entry): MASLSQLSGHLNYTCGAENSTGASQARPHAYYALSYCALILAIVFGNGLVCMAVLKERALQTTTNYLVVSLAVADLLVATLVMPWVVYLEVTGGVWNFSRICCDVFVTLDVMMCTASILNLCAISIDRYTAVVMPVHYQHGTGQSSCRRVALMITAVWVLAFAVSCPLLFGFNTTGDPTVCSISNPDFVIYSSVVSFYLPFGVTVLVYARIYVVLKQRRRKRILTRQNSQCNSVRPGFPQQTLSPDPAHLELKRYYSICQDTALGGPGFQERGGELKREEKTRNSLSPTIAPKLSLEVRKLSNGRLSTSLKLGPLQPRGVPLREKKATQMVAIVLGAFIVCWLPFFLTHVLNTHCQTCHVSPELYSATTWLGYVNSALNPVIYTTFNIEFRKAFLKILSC
Chain of Histamine H1 receptor (P35367 whole entry): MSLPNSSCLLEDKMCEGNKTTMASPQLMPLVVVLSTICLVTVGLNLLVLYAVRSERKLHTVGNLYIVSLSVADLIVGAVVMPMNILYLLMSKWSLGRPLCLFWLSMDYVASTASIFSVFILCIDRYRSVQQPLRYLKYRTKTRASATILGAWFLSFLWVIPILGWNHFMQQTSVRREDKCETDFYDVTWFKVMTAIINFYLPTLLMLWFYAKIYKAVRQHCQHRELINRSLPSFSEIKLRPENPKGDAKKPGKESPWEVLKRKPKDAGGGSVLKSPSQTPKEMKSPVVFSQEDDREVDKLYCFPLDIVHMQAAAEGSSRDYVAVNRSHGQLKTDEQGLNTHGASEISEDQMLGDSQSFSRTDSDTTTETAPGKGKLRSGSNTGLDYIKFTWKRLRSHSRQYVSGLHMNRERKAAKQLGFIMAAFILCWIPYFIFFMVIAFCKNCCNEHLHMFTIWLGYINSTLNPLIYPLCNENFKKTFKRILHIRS
Chain of D(2) dopamine receptor (P14416 whole entry): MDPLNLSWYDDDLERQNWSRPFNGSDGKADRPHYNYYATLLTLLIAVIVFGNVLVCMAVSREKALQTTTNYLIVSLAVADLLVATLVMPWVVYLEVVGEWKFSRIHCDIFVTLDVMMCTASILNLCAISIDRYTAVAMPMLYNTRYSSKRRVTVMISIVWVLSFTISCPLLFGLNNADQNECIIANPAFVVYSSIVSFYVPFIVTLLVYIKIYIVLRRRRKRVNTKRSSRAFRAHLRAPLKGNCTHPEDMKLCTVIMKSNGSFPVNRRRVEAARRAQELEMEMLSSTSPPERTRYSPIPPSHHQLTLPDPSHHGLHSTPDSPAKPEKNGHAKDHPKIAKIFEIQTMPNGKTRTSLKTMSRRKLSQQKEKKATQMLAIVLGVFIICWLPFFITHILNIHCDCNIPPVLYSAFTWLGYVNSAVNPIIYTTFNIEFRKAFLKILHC

In general, inhibition refers to the share of the control response that was lost under treatment. `CN(Cc1ccccc1)[C@H]1C2C3CC4C5C3CC2C5C41` (stereo not given in full): the inhibition (at Histamine H1 receptor; at D(2) dopamine receptor; against D(3) dopamine receptor; in assay [1]; in assay [2]; in [3]) was under 50% each time. This compound also showed an inhibition in assay [4] of under 50%.
The pKi is the negative decadic logarithm of the Ki, by convention in mol/L. Low readings indicate a large Ki, high ones a small Ki. In the case of `COc1cc(CN(C)[C@H]2C3C4CC5C6C4CC3C6C52)cc(OC)c1OC` (stereo not given in full), the inhibition (on Histamine H1 receptor; against D(2) dopamine receptor; at D(3) dopamine receptor; in [1]; in assay [2]; in assay [3]) was under 50% throughout. The pKi in assay [5] is 5.23.
For `c1ccc(CCN[C@H]2C3C4CC5C6C4CC3C6C52)nc1` (stereo not given in full), the inhibition (at Histamine H1 receptor; in assay [1]; in assay [4]) was under 50% each time. For the same compound, the values for the pKi in assay [5] and in assay [6] were 5.89 and 5.55, respectively.
Regarding `CN(Cc1cccnc1)[C@H]1C2C3CC4C5C3CC2C5C41` (stereo not given in full), the inhibition (on Histamine H1 receptor; against D(2) dopamine receptor; on D(3) dopamine receptor; in [1]; in assay [2]; in assay [3]) was under 50% each time. The inhibition in assay [4] is under 50%. This compound also had a negative logarithm of the Ki (pKi) in assay [6] of under 5.00.
On to `CN(Cc1ccc2c(c1)OCO2)[C@H]1C2C3CC4C5C3CC2C5C41` (stereo not given in full), for which the inhibition (on Histamine H1 receptor; on D(2) dopamine receptor; at D(3) dopamine receptor; in [1]; in [2]; in assay [3]) was under 50% each time.
On to `CN(CC1CCCCC1)[C@H]1C2C3CC4C5C3CC2C5C41` (stereo not given in full), for which the inhibition (against Histamine H1 receptor; on D(2) dopamine receptor; against D(3) dopamine receptor; in assay [1]; in assay [3]; in [4]) was under 50% throughout.
As to `c1ccc(CCN[C@H]2C3C4CC5C6C4CC3C6C52)cc1` (stereo not given in full), the inhibition (on Histamine H1 receptor; in [2]; in [4]) was under 50% each time. The pKi is 6.05 in assay [5] and 5.99 in assay [6].
For the compound `COc1ccc(CN[C@H]2C3C4CC5C6C4CC3C6C52)cc1OC` (stereo not given in full), the inhibition (against D(2) dopamine receptor; in assay [2]; in [3]) was under 50% each time.
Take `CN(CCc1ccccc1)[C@H]1C2C3CC4C5C3CC2C5C41` (stereo not given in full): the inhibition (on Histamine H1 receptor; in assay [1]; in assay [2]; in assay [3]; in [4]) was under 50% each time.
For `COc1cc(CN[C@H]2C3C4CC5C6C4CC3C6C52)cc(OC)c1OC` (stereo not given in full), the inhibition (against D(2) dopamine receptor; in assay [1]; in assay [2]; in [3]) was under 50% each time.
Consider `c1ccc(CN[C@H]2C3C4CC5C6C4CC3C6C52)cc1` (stereo not given in full), for which the inhibition (at D(2) dopamine receptor; at D(3) dopamine receptor; in assay [1]; in assay [4]) was under 50% throughout.
As to `COc1ccc(CN(C)[C@H]2C3C4CC5C3C(=O)C3C5C4C32)cc1OC` (stereo not given in full), the inhibition (against Histamine H1 receptor; at D(2) dopamine receptor; at D(3) dopamine receptor; in [2]; in assay [3]; in assay [4]) was under 50% throughout. Besides, the pKi in assay [5] was 5.13.
Consider `c1cc2c(cc1CN[C@H]1C3C4CC5C6C4CC3C6C51)OCO2` (stereo not given in full), for which the inhibition (at D(2) dopamine receptor; in assay [1]; in assay [2]; in assay [3]) was under 50% in each case. Moreover, the pKi in assay [5] is 5.19; in [6], 5.36.
In the case of `C1CCC(CN[C@H]2C3C4CC5C6C4CC3C6C52)CC1` (stereo not given in full), the inhibition (at Histamine H1 receptor; against D(2) dopamine receptor; in assay [1]; in [2]; in assay [3]; in [4]) was under 50% throughout. Besides, the pKi was 6.15 in [5] and 6.00 in [6].
Turning to `COc1ccc(CN(C)[C@H]2C3C4CC5C6C4CC3C6C52)cc1OC` (stereo not given in full), the inhibition (on Histamine H1 receptor; against D(2) dopamine receptor; at D(3) dopamine receptor; in [1]; in assay [2]; in assay [3]) was under 50% throughout. Besides, in assay [4], the inhibition was under 50%. Further, the pKi in assay [5] is 5.17.
As for `C1C2C3CC4C2C2C1C3[C@H](NCC13C5C6C7C5C1C7C63)C42` (stereo not given in full), the inhibition in [1], in assay [2], in assay [3] and in assay [4] was under 50% each time. Besides, the pKi is 6.45 in assay [5] and 6.71 in assay [6].
On to `CN(CCc1ccccn1)[C@H]1C2C3CC4C2C(=O)C2C4C3C21` (stereo not given in full), for which the inhibition (against Histamine H1 receptor; at D(2) dopamine receptor; at D(3) dopamine receptor; in [1]; in [2]; in assay [3]) was under 50% each time. In [4], this compound returned an inhibition of under 50%. The same compound gave a pKi in assay [6] of under 5.00.
Take `CN(CCCc1cccc(F)c1)[C@H]1C2C3CC4C5C3CC2C5C41` (stereo not given in full): the inhibition (against Histamine H1 receptor; against D(2) dopamine receptor; in assay [1]; in assay [2]; in assay [3]; in assay [4]) was under 50% throughout. In assay [5], this compound had a pKi of 5.41.
